Source: patent publication US10391095B2, “DNA-PK inhibitors” (Vertex Pharmaceuticals Incorporated, priority 2012, dated 2019)

Biological target: DNA-PK (Homo sapiens, UniProt P78527)
Assay: DNA-PK inhibition assay (radiometric, 33P-ATP)
Type: biochemical
Details: 100 μM ATP, competitive tight-binding fit
Summary of the method: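 Approx. 6 nM DNA-PK with 10 µg/mL sheared dsDNA, 0.8 mg/mL peptide substrate and 100 µM 33P-ATP in HEPES pH 7.5, 10 mM MgCl2; 45 min, phosphoric acid quench. Phosphopeptide captured on filter plates and counted by scintillation; Ki from a competitive tight-binding model fit.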

| SMILES | Ki |
| --- | --- |
| CC(O)Cn1ncc2cc(-c3cc(NC[C@@H](C)c4ccnc5c4OCCO5)ncn3)cnc21 (single isomer, unassigned) [Compound 503] | < 30 nM |
| CNC(=O)c1ccnc2c([C@H](C)CNc3cc(-c4ccc(OC5COC5)cc4)ncn3)cccc12 [Compound 748] | < 30 nM |
| CC(CNc1cc(-c2cnc3c(cnn3CCO)c2)ncn1)c1ccnc2c1OCCO2 (stereo not shown) [Compound 444] | < 30 nM |
| [2H]c1nc(C)nc([2H])c1-c1cc(NC[C@@H](C)c2cccc3c(C(=O)NC)c(F)cnc23)ncn1 [Compound 862] | < 30 nM |
| CNC(=O)c1ccnc2c([C@H](C)CNc3cc(-c4ccnc(C(F)(F)F)c4)ncn3)cccc12 [Compound 812] | < 30 nM |
| CC(=O)c1ccc(-c2cc(NC[C@@H](C)c3ccnc4c3OCCO4)ncn2)cc1 [Compound 456] | < 30 nM |
| CC(CNc1cc(-c2cnc3c(cnn3CCO)c2)ncn1)c1cccc2nccnc12 (stereo not shown) [Compound 401] | < 30 nM |
| Cc1ccc(-c2cc(NC[C@@H](C)c3cccc4c(=O)n(C)cnc34)ncn2)cn1 [Compound 698] | < 30 nM |
| CNC(=O)c1ccnc2c([C@H](C)CNc3cc(N4CNC(=O)C4)ncn3)cccc12 [Compound 797] | < 30 nM |
| Cc1ccc(-c2cc(NC[C@@H](C)c3ccnc4c3OCCN4)ncn2)cn1 [Compound 660] | < 30 nM |
| C[C@H](CNc1cc(-c2cnc3c(cnn3CCO)c2)ncn1)c1cccc2c(C(F)F)c(F)cnc12 [Compound 814] | < 30 nM |
| CNC(=O)c1ccnc2c([C@H](C)CNc3cc(-c4cnc(N5CCOCC5)nc4)ncn3)cccc12 [Compound 650] | < 30 nM |
| Cc1ccc(-c2cc(NCC(C)c3ccccc3OC3CCC3)ncn2)cn1 (stereo not shown) [Compound 240] | < 30 nM |
| Cc1ncc(-c2cc(NC[C@@H](C)c3ccnc4c3OCC4)ncn2)cn1 [Compound 416] | < 30 nM |
| Cc1cc([C@H](C)CNc2cc(-c3ccc4ncccc4c3)ncn2)c2c(n1)CCO2 [Compound 508] | < 30 nM |
| Cc1ccc(-c2cc(NCC(C)c3ccnc4c3OCCN4)ncn2)cn1 (stereo not shown) [Compound 648] | < 30 nM |
| CC(CNc1cc(-c2cnc3c(cnn3CCO)c2)ncn1)c1cccc2scnc12 (stereo not shown) [Compound 402] | < 30 nM |
| Cc1cc([C@H](C)CNc2cc(-c3cnc4c(cnn4CCO)c3)ncn2)c2c(n1)CCO2 [Compound 505] | < 30 nM |
| CNC(=O)c1ccnc2c([C@H](C)CNc3cc(-c4cnc5c(c4)OCCO5)ncn3)cccc12 [Compound 935] | < 30 nM |
| CNC(=O)c1ccnc2c([C@H](C)CNc3cc(-c4ccc(CO)s4)ncn3)cccc12 [Compound 860] | < 30 nM |

| SMILES | Ki |
| --- | --- |
| COc1nc(N)ncc1[C@H](C)CNc1cc(-c2ccc(C)nc2)ncn1 [Compound 475] | < 30 nM |
| C[C@H](CNc1cc(-c2cnc3[nH]ncc3c2)ncn1)c1ccnc2c1OCC2 [Compound 437] | < 30 nM |
| Cc1ncc(-c2cc(NC[C@@H](C)c3cccc4scnc34)ncn2)cn1 [Compound 658] | < 30 nM |
| CNC(=O)c1c(F)cnc2c([C@H](C)CNc3cc(-c4cnc(C)s4)ncn3)cccc12 [Compound 828] | < 30 nM |
| COc1ccccc1CCNc1cc(-c2cnc3c(ccn3C(C)C)c2)ncn1 [Compound 37] | < 30 nM |
| Cc1ccc(-c2cc(NCC(C)c3cccnc3OC3CCC3)ncn2)cn1 (stereo not shown) [Compound 247] | < 30 nM |
| CNC(=O)c1ccnc2c([C@H](C)CNc3cc(-c4cnc(OC5CCCN(C(=O)OC(C)(C)C)C5)nc4)ncn3)cccc12 (stereo partly shown) [Compound 747] | < 30 nM |
| CNC(=O)c1ccnc2c([C@H](C)CNc3cc(N4CCn5c(C6CCN(C)CC6)cnc5C4)ncn3)cccc12 [Compound 826] | < 30 nM |
| CN1CCN(c2ccc(-c3cc(NCCc4cccc5c4OCC5)ncn3)cn2)CC1 [Compound 30] | < 30 nM |
| Cc1ccc(-c2cc(NCC(C)c3ccccc3OCC3CCCC3)ncn2)cn1 (stereo not shown) [Compound 194] | < 30 nM |
| CNC(=O)c1ccnc2c([C@H](C)CNc3cc(-c4ccc(C)cc4F)ncn3)cccc12 [Compound 805] | < 30 nM |
| CNC(=O)c1ccnc2c([C@H](C)CNc3cc(N4CCn5ccnc5C4)ncn3)cccc12 [Compound 741] | < 30 nM |
| CC(CNc1cc(-c2cnc3c(cnn3CCO)c2)ncn1)c1cncc2c1OCCC2 (stereo not shown) [Compound 452] | < 30 nM |
| CNC(=O)c1ccnc2c([C@H](C)CNc3cc(-c4ccc(NS(C)(=O)=O)cc4)ncn3)cccc12 [Compound 680] | < 30 nM |
| C[C@H](CNc1cc(-c2cnc3c(cnn3C3CN(C(=O)OC(C)(C)C)C3)c2)ncn1)c1ccnc2c1OCCO2 [Compound 526] | < 30 nM |
| Cc1ccc(-c2cc(NCC(C)c3ccc(F)c4cccnc34)ncn2)cn1 (stereo not shown) [Compound 303] | < 30 nM |
| CNC(=O)c1ccc(-c2cc(NC[C@@H](C)c3cccc4c(C(=O)NC)ccnc34)ncn2)s1 [Compound 776] | < 30 nM |
| CNC(=O)c1ccnc2c([C@H](C)CNc3cc(-c4ccc(C(=O)N5CCN(C)CC5)cc4)ncn3)cccc12 [Compound 770] | < 30 nM |
| [2H]C([2H])([2H])NC(=O)c1ccnc2c([C@H](C)CNc3cc(-c4cnc(C)nc4)ncn3)cccc12 [Compound 654] | < 30 nM |

Now from value to molecule:

| Ki | SMILES |
| --- | --- |
| < 30 nM | CNC(=O)c1ccnc2c([C@H](C)CNc3cc(-c4cnc(C)s4)ncn3)ccc(F)c12 [Compound 827] |
| < 30 nM | C#CCNc1ccc(-c2cc(NC[C@@H](C)c3ccc(C(=O)NC)cc3OC)ncn2)cn1 [Compound 385] |
| < 30 nM | COc1ccccc1[C@H](C)CNc1cc(-c2cnc(C)nc2)ncn1 [Compound 138] |
| < 30 nM | CCOc1cc(F)ccc1[C@H](C)CNc1cc(-c2ccc(N3CCN(C)CC3)nc2)ncn1 [Compound 120] |
| < 30 nM | CNC(=O)c1ccnc2c([C@H](C)CNc3cc(-c4ccc(C(C)(C)O)nc4)ncn3)ccc(F)c12 [Compound 865] |
| < 30 nM | CNC(=O)c1ccnc2c([C@H](C)CNc3cc(-c4cnc(OC(C)C)c(C)c4)ncn3)cccc12 [Compound 947] |
| < 30 nM | CNC(=O)c1ccnc2c([C@H](C)CNc3cc(-c4cnc(N)nc4)ncn3)cccc12 [Compound 608] |
| < 30 nM | COc1ccccc1[C@H](C)CNc1cc(-c2ccnc(NCCO)c2)ncn1 [Compound 119] |
| < 30 nM | CCNc1ccc(-c2cc(NC[C@@H](C)c3cc(F)cc4c(C(=O)NC)ccnc34)ncn2)cn1 [Compound 572] |
| < 30 nM | C=CCNc1ccc(-c2cc(NC[C@@H](C)c3ccc(C(=O)NC)cc3OC)ncn2)cn1 [Compound 387] |
| < 30 nM | CNC(=O)c1ccnc2c([C@H](C)CNc3cc(-c4ccc([S+](C)[O-])cc4)ncn3)cccc12 (stereo partly shown) [Compound 677] |
| < 30 nM | CNC(=O)c1ccnc2c([C@H](C)CNc3cc(-c4ccc(C(O)C(C)C)nc4)ncn3)ccc(F)c12 (stereo partly shown) [Compound 926] |
| < 30 nM | CCOc1cc(-c2cc(NC[C@@H](C)c3cccc4c(C(=O)NC)c(F)cnc34)ncn2)cnc1OCC [Compound 897] |
| < 30 nM | CNC(=O)c1ccnc2c([C@H](C)CNc3cc(-c4cnc(CO)c(OC)c4)ncn3)cccc12 [Compound 821] |
| < 30 nM | CCCNc1ccc(-c2cc(NC[C@@H](C)c3ccc(C(=O)NC)cc3OC)ncn2)cn1 [Compound 361] |
| < 30 nM | CNC(=O)c1ccnc2c([C@H](C)CNc3cc(-c4ccc(C(C)OC)cc4)ncn3)cccc12 (stereo partly shown) [Compound 811] |
| < 30 nM | Cc1ccc(-c2cc(NC[C@@H](C)c3cccc4c(C(N)=O)ccnc34)ncn2)cn1 [Compound 494] |
| < 30 nM | CNC(=O)c1ccnc2c([C@H](C)CNc3cc(-c4cnc(OC)c(N)c4)ncn3)ccc(F)c12 [Compound 910] |
| < 30 nM | CCCNCCNc1ccc(-c2cc(NC[C@@H](C)c3cccc4c(C(=O)NC)ccnc34)ncn2)cn1 [Compound 705] |

| Ki | SMILES |
| --- | --- |
| < 30 nM | CNC(=O)c1ccnc2c([C@H](C)CNc3cc(-c4cnc(C)nc4)ncn3)cc(F)cc12 [Compound 637] |
| < 30 nM | CNC(=O)c1ccnc2c([C@H](C)CNc3cc(-c4cnc(C(C)(C)OC)nc4)ncn3)cccc12 [Compound 928] |
| < 30 nM | COC(=O)c1ccc(OC)c(C(C)CNc2cc(-c3ccc(C)nc3)ncn2)c1 (stereo not shown) [Compound 250] |
| < 30 nM | CCNC(=O)c1ccnc2c([C@H](C)CNc3cc(-c4ccc(C)nc4)ncn3)cccc12 [Compound 545] |
| < 30 nM | CNC(=O)c1ccnc2c([C@H](C)CNc3cc(-c4ccc(-c5nnnn5C)nc4)ncn3)cccc12 [Compound 958] |
| < 30 nM | CNC(=O)c1ccnc2c([C@H](C)CNc3cc(-c4ccc(OC)nc4)ncn3)cccc12 [Compound 615] |
| < 30 nM | CNC(=O)c1ccc(C(C)CNc2cc(-c3cnc4c(cnn4C4CN(C(C)=O)C4)c3)ncn2)c(OC)c1 (stereo not shown) [Compound 248] |
| < 30 nM | CNC(=O)c1ccnc2c([C@H](C)CNc3cc(-c4ccc5c(c4)CC(=O)N5C)ncn3)cccc12 [Compound 825] |
| < 30 nM | CNC(=O)c1cc(C)nc2c([C@H](C)CNc3cc(-c4ccc(C)nc4)ncn3)cccc12 [Compound 484] |
| < 30 nM | CNC(=O)c1ccc(C(C)CNc2cc(-c3ccc(N4CCN(C(C)=O)CC4)nc3)ncn2)c(OC)c1 (stereo not shown) [Compound 130] |
| < 30 nM | CNCCNc1ccc(-c2cc(NC[C@@H](C)c3ccc(C(=O)NC)cc3OC)ncn2)cn1 [Compound 469] |
| < 30 nM | CNC(=O)c1ccnc2c([C@H](C)CNc3cc(-c4ccc(C(=O)O)nc4)ncn3)cccc12 [Compound 673] |
| < 30 nM | CNC(=O)c1ccc(C(C)CNc2cc(-c3ccc(OC(C)C)nc3)ncn2)c(OC)c1 (stereo not shown) [Compound 324] |
| < 30 nM | CCNC(=O)Cn1ncc2cc(-c3cc(NC[C@@H](C)c4ccccc4OC)ncn3)cnc21 [Compound 147] |
| < 30 nM | CNC(=O)c1ccc([C@H](C)CNc2cc(-c3ccc(NC(C)=O)cc3)ncn2)c(OC)c1 [Compound 317] |
| < 30 nM | CNC(=O)c1ccnc2c([C@H](C)CNc3cc(-c4ccc(S(C)(=O)=O)nc4)ncn3)cccc12 [Compound 587] |
| < 30 nM | CNC(=O)c1ccnc2c([C@H](C)CNc3cc(-c4ccc(C(C)O)nc4)ncn3)cccc12 (stereo partly shown) [Compound 730] |
| < 30 nM | CNC(=O)c1ccnc2c([C@H](C)CNc3cc(-c4cncc(C)c4)ncn3)cccc12 [Compound 792] |
